Where two headings read alike, the source gives them in different places. Bridge positions count the residues as written; N and C are the ends. Square brackets hold non-standard residues; d marks the D form. Peptide text beside a SMILES is read from it. * marks the point of attachment. X10 = NCCCC[C@H](NC(=O)[C@@H](N)CCCCNC(=O)C*)C(=O)N[C@@H](CS)C(N)=O; X2 = N=C(N)NCCC[C@H](NC(=O)[C@H](CS)NC(=O)CNC(=O)CNC(=O)C*)C(N)=O; X1 = NCCCC[C@H](NC(=O)[C@H](CS)NC(=O)CNC(=O)CNC(=O)C*)C(N)=O; NMeF = CN[C@@H](Cc1ccccc1)C(=O)O; hCys = N[C@@H](CCS)C(=O)O; Acm = CC(=O)NC*
Legend:
[1] = system: Somatostatin Receptor (SSTR)-expressing CA20948 rat pancreatic tumors; assay: Localization and in vivo biodistribution/imaging of Tc-99m labeled peptides in CA20948 tumor-bearing Lewis rats; conditions: 90-minute biodistribution; for T/B (tumor/blood ratio) / T/M / % ID/g Tumor: 99mTc-labeled peptide, i.v.; for % ID/g Tumor: CA20948 tumor-bearing Lewis rats
Description: (§1) CA20948 rat pancreatic tumor cells, thawed from frozen harvested tumor brei, were implanted intramuscularly in a suspension of 0.05 to 0.1 mL/animal, into the right hind thigh of 6 week old Lewis rats. The tumors were allowed to grow to approximately 0.5 to 2 g, harvested, and tumor brei was used to implant a second, naive set of Lewis rats. Passaging in this fashion was repeated to generate successive generations of tumor-bearing animals. The tumor-bearing animals used for the in vivo studies were usually from the third to fifth passage and carried 0.2 to 2 g tumors.
(§2) For studies of the specificity of radiotracer localization in the tumors, selected animals were given an subcutaneous SSTR-blocking dose (4 mg/kg) of octreotide 30 minutes prior to injection of the radiotracer.
(§3) Third- to fifth-passage CA20948 tumor-bearing Lewis rats were restrained and injected intravenously via the dorsal tail vein with a dose of 0.15-0.20 mCi ^99m Tc-labeled peptide corresponding to 3 to 8 μg peptide in 0.2 to 0.4 mL.
(§4) At selected times, the animals were sacrificed by cervical dislocation and selected necropsy was performed. Harvested tissue samples were weighed and counted along with an aliquot of the injected dose in a gamma well-counter.

[2] = system: SSTR-expressing tumors; assay: Clinical trial: scintigraphic imaging of human patients bearing SSTR-expressing tumors with Tc-99m labeled P587; assay type: in vivo; conditions: i.v., within 30 minutes of injection
Source text: In a clinical trial, scintigraphic imaging of human patients bearing SSTR-expressing tumors was achieved using the Tc-99m labeled P587 reagent.
A total of 10 patients, four females and six males ranging in age from 27 to 69 years, had been previously diagnosed with growth hormone-secreting pituitary adenoma (4 patients), melanoma (1 subject), medullary thyroid cancer (1 subject), small cell lung carcinoma (SCLC; 1 patient), non-Hodgkin's lymphoma (1 patient) or gastric carcinoid (1 patient). Each of these patients were administered Tc-99m labeled P587 at a dose of 10-22 mCi per 0.2-0.5 mg by intravenous injection. Scintigraphic imaging was them performed as described herein on each patient for 4 hours post-injection.
Gamma camera imaging is started simultaneously with injection. Anterior images were acquired as a dynamic study (10 sec image acquisitions) over the first 10 min, and then as static images at 1, 2, 3 and 4 h post-injection. Anterior images were acquired for 500,000 counts or 20 min (whichever is shorter), at approximately 10-20 min, and at approximately 1, 2, 3 and 4 h post-injection.

[3] = biological target: T1, somatostatin receptor (Rattus norvegicus, UniProt P30680); assay: Inhibition of binding of {125I-Tyr11}somatostatin-14 to AR42J rat pancreatic tumor cell membranes; conditions: uncomplexed peptide, {125I-Tyr11}somatostatin-14 0.5 nM
T1 construct: endogenous in cells; host or cells: AR42J rat pancreatic tumor cell line (membrane preparation)
T1 sequence (P30680 whole entry): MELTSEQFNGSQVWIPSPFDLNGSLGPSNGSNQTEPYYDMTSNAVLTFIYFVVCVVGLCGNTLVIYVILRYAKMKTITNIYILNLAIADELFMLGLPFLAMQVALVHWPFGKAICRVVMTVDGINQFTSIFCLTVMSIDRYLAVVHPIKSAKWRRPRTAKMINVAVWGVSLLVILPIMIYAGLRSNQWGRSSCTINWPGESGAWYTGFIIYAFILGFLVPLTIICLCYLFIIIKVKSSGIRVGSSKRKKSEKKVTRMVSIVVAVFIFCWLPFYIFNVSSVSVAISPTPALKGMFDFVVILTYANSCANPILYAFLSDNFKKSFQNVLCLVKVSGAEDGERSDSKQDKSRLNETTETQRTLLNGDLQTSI
Description: The rat pancreatic tumor cell line AR42J which expresses the somatostatin receptor was cultured in Dulbecco's minimal essential media (DMEM) supplemented with 10% fetal bovine serum (FBS) and 8 mM glutamine in a humdified 5% CO2 atmosphere at 37° C. in T-flasks. Harvested cells were homogenized in cold 50 mM Tris-HCl buffer (pH 7.4) and the homogenate then centrifuged at 39,000 g for 10 min at 4° C. Pellets were washed once with buffer and then resuspended in an ice-cold solution of 10 mM Tris-HCl (pH 7.4). Equal aliquots of this cell membrane preparation were incubated with {^125 I-Tyr^11 }somatostatin-14 (at a final concentration of 0.5 nM and 750,000 cpm/mL, at a specific activity of 2000 Ci/mmol, Amersham, Arlington Heights, Ill.) and peptide or peptide-rheniumcomplex at a final concentration of from 10^-11 M to 10^-6 M in a solution of 50 mM HEPES (pH 7.4) containing 1 % bovine serum albumin (BSA), 5 mM MgCl2, Trasylol (200,000 International Units), bacitracin (0.02 mg/mL) and phenylmethylsulfonylfluoride (0.02 mg/mL) for 25min at 30° C. Using a filtration manifold, this mixture was filtered through a polyethyleneimine-washed GC/F filter (Whatman, Maidstone, England), and the residue remaining on the filter washed thrice with 5 mL cold HEPES buffer. The filter and a sample of the filter washings were then counted in a gamma counter. To assess non-specific binding, the assay was performed in the presence of unlabeled somatostatin-14 at 200 nM. Data analysis including Hill plots of the data provided inhibition constants (see Bylund & Yamamura, "Methods of receptor binding", in Methods in Neurotransmitter Receptor Analysis, Yamamura et al., eds., Raven Press: New York, 1990).

[4] = system: Somatostatin Receptor (SSTR)-expressing CA20948 rat pancreatic tumors; conditions: in vivo, iv
Description: as §1, §2, §3, §4

Compound | Ki [3] [nM] | T/B (tumor/blood ratio) [4] | T/M [4] | further results
CC(C)[C@@H]1NC(=O)[C@H](CCCCN)NC(=O)[C@@H](Cc2c[nH]c3ccccc23)NC(=O)[C@H](Cc2ccc(O)cc2)NC(=O)[C@H](Cc2ccccc2)N(C)C(=O)[C@H](CCSCC(=O)NCC(=O)NCC(=O)N[C@@H](CS)C(=O)N[C@@H](CCCCN)C(N)=O)NC1=O (99mTc complex, metal not drawn) [Peptide P587, cyclo(N-methyl)FYWD KV.Hcy.(CH2 CO.GGCK.amide)] (cyclo([NMeF]Y[dW]KV[hCys](X1))) | – | – | – | tumor uptake and tumor/blood ratios (in words) [1]: very high; T/B (tumor/blood ratio) [1]: 6.0; T/M [1]: 33; % ID/g Tumor [1]: 3.4 % ID/g; injected dose remaining in the circulation [2]: less than 10%
CC(C)[C@@H]1NC(=O)[C@H](CCCCN)NC(=O)[C@@H](Cc2c[nH]c3ccccc23)NC(=O)[C@H](Cc2ccc(O)cc2)NC(=O)[C@H](Cc2ccccc2)N(C)C(=O)[C@H](CCSCC(=O)NCC(=O)NCC(=O)N[C@@H](CS)C(=O)N[C@@H](CCCNC(=N)N)C(N)=O)NC1=O (99mTc complex, metal not drawn) [Peptide P617, cyclo(N-methyl)FYWD KV.Hcy.(CH2 CO.GGCR.amide)] (cyclo([NMeF]Y[dW]KV[hCys](X2))) | – | – | – | tumor uptake and tumor/blood ratios (in words) [1]: very high; T/B (tumor/blood ratio) [1]: 9.4; T/M [1]: 36; % ID/g Tumor [1]: 6.7 % ID/g
CC(=O)NCSC[C@H](NC(=O)CNC(=O)[C@H](CSCNC(C)=O)NC(=O)[C@@H]1CSCC(=O)N[C@@H](Cc2ccccc2)C(=O)N[C@@H](Cc2ccccc2)C(=O)N[C@H](Cc2c[nH]c3ccccc23)C(=O)N[C@@H](CCCCN)C(=O)N[C@@H]([C@@H](C)O)C(=O)N[C@@H](Cc2ccccc2)C(=O)N1)C(N)=O [CH2 CO.FFWD KTFCCAcm GCAcm.amide] ({CH2CO}-FF[dW]KTFCC(Acm)GC(Acm)-NH2; thioether N-7) | 7.5 | – | – | –
C[C@@H](O)[C@@H]1NC(=O)[C@H](CCCCN)NC(=O)[C@@H](Cc2c[nH]c3ccccc23)NC(=O)[C@H](Cc2ccccc2)NC(=O)[C@H](Cc2ccccc2)NC(=O)CSC[C@@H](C(=O)NCC(=O)NCC(=O)N[C@@H](CS)C(N)=O)NC(=O)[C@H](Cc2ccccc2)NC1=O [CH2 CO.FFWD KTFCGGC.amide] ({CH2CO}-FF[dW]KTFCGGC-NH2; thioether N-7) | 9.4 | – | – | –
CC(C)[C@@H]1NC(=O)[C@H](CCCCN)NC(=O)[C@@H](Cc2c[nH]c3ccccc23)NC(=O)[C@H](Cc2ccc(O)cc2)NC(=O)[C@H](Cc2ccccc2)N(C)C(=O)[C@H](CCSCC(=O)NCCCC[C@H](N)C(=O)N[C@@H](CCCCN)C(=O)N[C@@H](CS)C(N)=O)NC1=O [cyclo.(N-Me)FYWD KV.Hcy(CH2 CO.(ε-K)KC.amide)] (cyclo([NMeF]Y[dW]KV[hCys](X10))) | 2.2 | – | – | –

Now from value to compound, other results behind:

Ki [3] [nM] | T/B (tumor/blood ratio) [4] | T/M [4] | Compound | further results
– | 0.91 | 7.4 | KKKK.NalD.Cpa.YWD KTFT(ε-K)GCDDDD.amide [Peptide P550] | –
– | 13 | 49 | cyclo.(N--CH3)FYWD KV.Hcy(CH2 CO.(β-Dap)KCK.amide) [Peptide P829] | –
– | 13 | 37 | cyclo.(N--CH3)FYWD KV.Hcy(CH2 CO.(β-Dap)KCR.amide) [Peptide P832] | –
– | 0.85 | 4.6 | cyclo.(N-Me)FYWD KV.Hcy(CH2 CO.(ε-K)KC.amide) [Peptide P625] | –
